# Measurements from patent US12077503B2, “Substituted cyclic amides and their use as herbicides” (FMC CORPORATION, priority 2015, dated 2024).
# Like-named read-outs stand apart in the source and are kept apart here.
# Key:
# Format in all cases: in vivo
# [1] = tested on: giant foxtail (Setaria faberii); test: Test A preemergence; conditions: Setaria faberi, pre-emergence, 240 h, read-out: Plant response rating, Foxtail, Giant; for pest or weed control at 125 g/ha: 125 g ai/ha, Preemergence, visual injury after approximately 10 d, 0 to 100 scale where 0 is no effect and 100 is complete control; for pest or weed control at 500 g/ha: 500 g ai/ha, preemergence, 0 to 100 scale, 0 = no effect, 100 = complete control
# Summary of the method: (§1)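 Compounds were formulated in a non-phytotoxic solvent mixture with surfactant and applied as a preemergence directed soil spray after seeding, or sprayed postemergence over plants 2 to 10 cm tall at the one- to two-leaf stage. Evaluation after about 10 d compared treated with untreated controls, using a scale from 0 (no effect) to 100 (complete control).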
# [2] = tested on: pigweed (Amaranthus retroflexus); test: Test A preemergence; conditions: Amaranthus retroflexus, pre-emergence, 240 h, read-out: Plant response rating, Pigweed; for pest or weed control at 125 g/ha: 125 g ai/ha, Preemergence, visual injury after approximately 10 d, 0 to 100 scale where 0 is no effect and 100 is complete control; for pest or weed control at 500 g/ha: 500 g ai/ha, preemergence, 0 to 100 scale, 0 = no effect, 100 = complete control
# [3] = tested on: Kochia (Kochia scoparia); test: Test A preemergence; conditions: Bassia scoparia, pre-emergence, 240 h, read-out: Plant response rating, Kochia; for pest or weed control at 125 g/ha: 125 g ai/ha, Preemergence, visual injury after approximately 10 d, 0 to 100 scale where 0 is no effect and 100 is complete control; for pest or weed control at 500 g/ha: 500 g ai/ha, preemergence, 0 to 100 scale, 0 = no effect, 100 = complete control
# Summary of the method: as §1
# [4] = tested on: barnyardgrass (Echinochloa crus-galli); test: Test A preemergence; conditions: Echinochloa crus-galli, pre-emergence, 240 h, read-out: Plant response rating, Barnyardgrass; for pest or weed control at 125 g/ha: 125 g ai/ha, Preemergence, visual injury after approximately 10 d, 0 to 100 scale where 0 is no effect and 100 is complete control; for pest or weed control at 500 g/ha: 500 g ai/ha, preemergence, 0 to 100 scale, 0 = no effect, 100 = complete control
# Summary of the method: as §1
# [5] = tested on: ryegrass, Italian (Italian ryegrass, Lolium multiflorum); test: Test A preemergence; conditions: Lolium multiflorum, pre-emergence, 240 h, read-out: Plant response rating, Ryegrass, Italian; for pest or weed control at 125 g/ha: 125 g ai/ha, Preemergence, visual injury after approximately 10 d, 0 to 100 scale where 0 is no effect and 100 is complete control; for pest or weed control at 500 g/ha: 500 g ai/ha, preemergence, 0 to 100 scale, 0 = no effect, 100 = complete control
# Summary of the method: as §1
# [6] = tested on: ragweed (common ragweed, Ambrosia elatior); test: Test A preemergence; conditions: Ambrosia artemisiifolia, pre-emergence, 240 h, read-out: Plant response rating, Ragweed; for pest or weed control at 125 g/ha: 125 g ai/ha, Preemergence, visual injury after approximately 10 d, 0 to 100 scale where 0 is no effect and 100 is complete control; for pest or weed control at 500 g/ha: 500 g ai/ha, preemergence, 0 to 100 scale, 0 = no effect, 100 = complete control
# Summary of the method: as §1
# [7] = tested on: ducksalad (Heteranthera limosa); test: Test B flooded paddy test; conditions: Flood, 250 g ai/ha; 0 to 100 scale where 0 is no effect and 100 is complete control; 13 to 15 d
# Summary of the method: (§2)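 Plants at 2-leaf stage flooded to 3 cm above soil, with compounds applied directly to paddy water and that depth maintained. Plants kept in greenhouse 13–15 d. Visual rating versus controls on a 0 (no effect) to 100 (complete control) scale.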
# [8] = tested on: sedge, umbrella (small-flower umbrella sedge, Cyperus difformis); test: Test B flooded paddy test; conditions: Flood, 250 g ai/ha; 0 to 100 scale where 0 is no effect and 100 is complete control; 13 to 15 d
# Summary of the method: as §2
# [9] = tested on: rice (Oryra sativa); test: Test B flooded paddy test; conditions: Flood, 250 g ai/ha; 0 to 100 scale where 0 is no effect and 100 is complete control; 13 to 15 d
# Summary of the method: as §2
# [10] = tested on: barnyardgrass (Echinochloa crus-galli); test: Test B flooded paddy test; conditions: Flood, 250 g ai/ha; 0 to 100 scale where 0 is no effect and 100 is complete control; 13 to 15 d
# Summary of the method: as §2
# [11] = tested on: corn (Zea mays); test: Test A postemergence; conditions: Zea mays, post-emergence, 240 h; for Corn plant response rating (crop injury, 0 = no effect, 100 = complete kill) at 125 g/ha: 125 g ai/ha, postemergence, visual rating after approx. 10 d, 0 to 100 scale (0 no effect, 100 complete control); for Corn plant response rating (crop injury, 0 = no effect, 100 = complete kill) at 500 g/ha: Postemergence, 500 g ai/ha, 0 to 100 scale where 0 is no effect and 100 is complete control
# Summary of the method: as §1
# [12] = tested on: pigweed (Amaranthus retroflexus); test: Test A postemergence; conditions: Amaranthus retroflexus, post-emergence, 240 h, read-out: Plant response rating, Pigweed; for pest or weed control at 125 g/ha: 125 g ai/ha, visual rating after approx. 10 d; for pest or weed control at 500 g/ha: 500 g ai/ha
# Summary of the method: as §1
# [13] = tested on: Kochia (Kochia scoparia); test: Test A postemergence; conditions: Bassia scoparia, post-emergence, 240 h, read-out: Plant response rating, Kochia; for pest or weed control at 125 g/ha: 125 g ai/ha, visual rating after approx. 10 d; for pest or weed control at 500 g/ha: 500 g ai/ha
# Summary of the method: as §1
# [14] = tested on: barnyardgrass (Echinochloa crus-galli); test: Test A postemergence; conditions: Echinochloa crus-galli, post-emergence, 240 h, read-out: Plant response rating, Barnyardgrass; for pest or weed control at 125 g/ha: 125 g ai/ha, postemergence, visual rating after approx. 10 d, 0 to 100 scale (0 no effect, 100 complete control); for pest or weed control at 500 g/ha: Postemergence, 500 g ai/ha, 0 to 100 scale where 0 is no effect and 100 is complete control
# Summary of the method: as §1
# [15] = tested on: Galium (catchweed bedstraw, Galium aparine); test: Test A postemergence; conditions: Galium, post-emergence, 240 h, read-out: Plant response rating, Galium; for pest or weed control at 125 g/ha: 125 g ai/ha, visual rating after approx. 10 d; for pest or weed control at 500 g/ha: 500 g ai/ha
# Summary of the method: as §1
# [16] = postemergence, 0 to 100 scale (0 no effect, 100 complete control)
# [17] = Postemergence, 0 to 100 scale where 0 is no effect and 100 is complete control
# [18] = postemergence, visual injury, 0 to 100 scale (0 no effect, 100 complete control), approx. 10 d
smiles,measurement,setting,value
"CN1C[C@H](c2ccc(C(F)(F)F)cc2)[C@@H](C(=O)Nc2ccccc2F)C1=O [Compound 622, (3S,4S)—N-(2-fluorophenyl)-1-methyl-2-oxo-4-[4-(trifluoromethyl)phenyl]-3-pyrrolidinecarboxamide]",pest or weed control at 125 g/ha,[1],90%
same,pest or weed control at 500 g/ha,[1],90%
same,pest or weed control at 125 g/ha,[2],80%
same,pest or weed control at 500 g/ha,[2],80%
same,pest or weed control at 125 g/ha,[3],80%
same,pest or weed control at 500 g/ha,[3],80%
same,pest or weed control at 125 g/ha,[4],90%
same,pest or weed control at 500 g/ha,[4],90%
same,pest or weed control at 125 g/ha,[5],40%
same,pest or weed control at 500 g/ha,[5],40%
same,pest or weed control at 125 g/ha,[6],60%
same,pest or weed control at 500 g/ha,[6],60%
same,"Plant response rating, Ducksalad",[7],100
same,"Plant response rating, Sedge, Umbrella",[8],0
same,"Plant response rating, Rice",[9],0
same,"Plant response rating, Barnyardgrass",[10],70
same,"Corn plant response rating (crop injury, 0 = no effect, 100 = complete kill) at 125 g/ha",[11],50%
same,"Corn plant response rating (crop injury, 0 = no effect, 100 = complete kill) at 500 g/ha",[11],70%
same,pest or weed control at 125 g/ha,[12]; [16],40%
same,pest or weed control at 500 g/ha,[12]; [17],50%
same,pest or weed control at 125 g/ha,[13]; [16],40%
same,pest or weed control at 500 g/ha,[13]; [17],60%
same,pest or weed control at 125 g/ha,[14],90%
same,pest or weed control at 500 g/ha,[14],90%
same,pest or weed control at 125 g/ha,[15]; [16],60%
same,pest or weed control at 500 g/ha,[15]; [17],70%
"CN1C[C@H](c2ccc(F)c(F)c2)[C@@H](C(=O)Nc2cccc(F)c2F)C1=O [Compound 639, (3S,4S)—N-(2,3-difluorophenyl)-4-(3,4-difluorophenyl)-1-methyl-2-oxo-3-pyrrolidinecarboxamide]",pest or weed control at 125 g/ha,[1],90%
same,pest or weed control at 500 g/ha,[1],100%
same,pest or weed control at 125 g/ha,[2],50%
same,pest or weed control at 500 g/ha,[2],80%
same,pest or weed control at 125 g/ha,[3],70%
same,pest or weed control at 500 g/ha,[3],80%
same,pest or weed control at 125 g/ha,[4],90%
same,pest or weed control at 500 g/ha,[4],90%
same,pest or weed control at 125 g/ha,[5],60%
same,pest or weed control at 500 g/ha,[5],90%
same,pest or weed control at 125 g/ha,[6],50%
same,pest or weed control at 500 g/ha,[6],70%
same,"Plant response rating, Ducksalad",[7],100
same,"Plant response rating, Sedge, Umbrella",[8],0
same,"Plant response rating, Rice",[9],0
same,"Plant response rating, Barnyardgrass",[10],80
same,"Corn plant response rating (crop injury, 0 = no effect, 100 = complete kill) at 125 g/ha",[11],40%
same,"Corn plant response rating (crop injury, 0 = no effect, 100 = complete kill) at 500 g/ha",[11],80%
same,pest or weed control at 125 g/ha,[12]; [16],20%
same,pest or weed control at 500 g/ha,[12]; [18],50%
same,pest or weed control at 125 g/ha,[13]; [16],60%
same,pest or weed control at 500 g/ha,[13]; [18],70%
same,pest or weed control at 125 g/ha,[14],90%
same,pest or weed control at 500 g/ha,[14],90%
same,pest or weed control at 125 g/ha,[15]; [16],40%
same,pest or weed control at 500 g/ha,[15]; [18],50%
